# Assays:
# [1] = system: Acinetobacter phenon 6/ct 13TU (Acinetobacter sp.); experiment: Antimicrobial activity against imipenem and meropenem-resistant Acinetobacter phenon 6/ct 13TU isolate PU86 by CLSI agar dilution method
# Acinetobacter baumannii [2] = experiment: Antimicrobial activity against imipenem and meropenem-resistant Acinetobacter baumannii isolate NJ59 by CLSI agar dilution method; format: functional
# [3] = system: Acinetobacter genospecies 3 (Acinetobacter genomosp. 3); experiment: Antimicrobial activity against imipenem and meropenem-resistant Acinetobacter genospecies 3 isolate PU78 by CLSI agar dilution method; settings: Acinetobacter genospecies 3, isolate PU78
# Acinetobacter baumannii [4] = experiment: Antimicrobial activity against imipenem and meropenem-resistant Acinetobacter baumannii isolate CY7 by CLSI agar dilution method; format: functional
# [5] = system: Acinetobacter genospecies 10/11; experiment: Antimicrobial activity against imipenem and meropenem-resistant Acinetobacter genospecies 10/11 isolate ZS5 by CLSI agar dilution method
# Acinetobacter baumannii [6] = experiment: Antimicrobial activity against imipenem and meropenem-resistant Acinetobacter baumannii isolate PU4A1 by CLSI agar dilution method; format: functional
# Acinetobacter baumannii [7] = experiment: Antimicrobial activity against imipenem and meropenem-resistant Acinetobacter baumannii isolate BJ52 by CLSI agar dilution method; format: functional
# [8] = system: Acinetobacter phenon 6/ct 13TU; experiment: Antimicrobial activity against imipenem and meropenem-resistant Acinetobacter phenon 6/ct 13TU isolate FZ4A18 by CLSI agar dilution method
# Acinetobacter phenon 5 = experiment: Antimicrobial activity against imipenem and meropenem-resistant Acinetobacter phenon 5 isolate PUA6 by CLSI agar dilution method
# Acinetobacter baumannii [9] = experiment: Antimicrobial activity against imipenem and meropenem-resistant Acinetobacter baumannii isolate DL34 by CLSI agar dilution method; format: functional
# Acinetobacter baumannii [10] = experiment: Antimicrobial activity against imipenem and meropenem-resistant Acinetobacter baumannii isolate BJ3-23 by CLSI agar dilution method; format: functional
# Acinetobacter baumannii [11] = experiment: Antimicrobial activity against imipenem and meropenem-resistant Acinetobacter baumannii isolate BJ3-9 by CLSI agar dilution method; format: functional
# Acinetobacter baumannii [12] = experiment: Antimicrobial activity against imipenem and meropenem-resistant Acinetobacter baumannii isolate ZJ32 by CLSI agar dilution method; format: functional
# Acinetobacter baumannii [13] = experiment: Antimicrobial activity against imipenem and meropenem-resistant Acinetobacter baumannii isolate JN45 by CLSI agar dilution method; format: functional
# Acinetobacter baumannii [14] = experiment: Antimicrobial activity against imipenem and meropenem-resistant Acinetobacter baumannii isolate PU4A22 by CLSI agar dilution method; format: functional
# Acinetobacter baumannii [15] = experiment: Antimicrobial activity against imipenem and meropenem-resistant Acinetobacter baumannii isolate FZ84 by CLSI agar dilution method; format: functional
# Acinetobacter baumannii [16] = experiment: Antimicrobial activity against imipenem and meropenem-resistant Acinetobacter baumannii isolate FW-F1 by CLSI agar dilution method; format: functional
# [17] = system: Acinetobacter genospecies 13TU; experiment: Antimicrobial activity against imipenem and meropenem-resistant Acinetobacter genospecies 13TU isolate CY6 by CLSI agar dilution method
# [18] = system: Acinetobacter genospecies 3; experiment: Antimicrobial activity against imipenem and meropenem-resistant Acinetobacter genospecies 3 isolate PUA7 by CLSI agar dilution method
# Acinetobacter baumannii [19] = experiment: Antimicrobial activity against imipenem and meropenem-resistant Acinetobacter baumannii isolate ZJ58 by CLSI agar dilution method; format: functional
# Acinetobacter baumannii [20] = experiment: Antimicrobial activity against imipenem and meropenem-resistant Acinetobacter baumannii isolate PU73 by CLSI agar dilution method; format: functional
# Acinetobacter baumannii [21] = experiment: Antimicrobial activity against imipenem and meropenem-resistant Acinetobacter baumannii isolate ZJ49 by CLSI agar dilution method; format: functional
# Acinetobacter baumannii [22] = experiment: Antimicrobial activity against imipenem and meropenem-resistant Acinetobacter baumannii isolate ZJ36 by CLSI agar dilution method; format: functional
# [23] = system: Acinetobacter genospecies 10/11; experiment: Antimicrobial activity against imipenem and meropenem-resistant Acinetobacter genospecies 10/11 isolate ZS15 by CLSI agar dilution method
# Acinetobacter baumannii [24] = experiment: Antimicrobial activity against imipenem and meropenem-resistant Acinetobacter baumannii isolate PUA1 by CLSI agar dilution method; format: functional
# Acinetobacter baumannii [25] = experiment: Antimicrobial activity against imipenem and meropenem-resistant Acinetobacter baumannii isolate BJ55 by CLSI agar dilution method; format: functional
Structure (SMILES),MIC [1] [mg/L],MIC (Acinetobacter baumannii [2]) [mg/L],MIC [3] [mg/L],MIC (Acinetobacter baumannii [4]) [mg/L],MIC [5] [mg/L],MIC (Acinetobacter baumannii [6]) [mg/L],MIC (Acinetobacter baumannii [7]) [mg/L],MIC [8] [mg/L],MIC (Acinetobacter phenon 5) [mg/L],MIC (Acinetobacter baumannii [9]) [mg/L],MIC (Acinetobacter baumannii [10]) [mg/L],MIC (Acinetobacter baumannii [11]) [mg/L],MIC (Acinetobacter baumannii [12]) [mg/L],MIC (Acinetobacter baumannii [13]) [mg/L],MIC (Acinetobacter baumannii [14]) [mg/L],MIC (Acinetobacter baumannii [15]) [mg/L],MIC (Acinetobacter baumannii [16]) [mg/L],MIC [17] [mg/L],MIC [18] [mg/L],MIC (Acinetobacter baumannii [19]) [mg/L],further results
NCC[C@H](O)C(=O)N[C@@H]1C[C@H](N)[C@@H](O[C@H]2O[C@H](CN)[C@@H](O)[C@H](O)[C@H]2O)[C@H](O)[C@H]1O[C@H]1O[C@H](CO)[C@@H](O)[C@H](N)[C@H]1O [AMIKACIN],4,> 256,1,> 256,> 256,> 256,2,32,2,> 256,> 256,> 256,> 256,128,128,> 256,> 256,32,4,64,MIC (Acinetobacter baumannii [20]): > 256 mg/L; MIC (Acinetobacter baumannii [21]): 256 mg/L; MIC (Acinetobacter baumannii [22]): 2 mg/L; MIC [23]: 256 mg/L; MIC (Acinetobacter baumannii [24]): 8 mg/L; MIC (Acinetobacter baumannii [25]): > 256 mg/L
CO[C@H]1/C=C/O[C@@]2(C)Oc3c(C)c(O)c4c(O)c(c(/C=N/N5CCN(C)CC5)c(O)c4c3C2=O)NC(=O)/C(C)=C\C=C\[C@H](C)[C@H](O)[C@@H](C)[C@@H](O)[C@@H](C)[C@H](OC(C)=O)[C@@H]1C [RIFAMPIN],256,8,4,4,256,4,8,4,> 256,4,8,8,16,> 256,4,128,8,> 256,128,8,MIC (Acinetobacter baumannii [20]): 4 mg/L; MIC (Acinetobacter baumannii [21]): 8 mg/L; MIC (Acinetobacter baumannii [22]): 8 mg/L; MIC [23]: > 256 mg/L; MIC (Acinetobacter baumannii [24]): 32 mg/L; MIC (Acinetobacter baumannii [25]): 8 mg/L
C[C@@H](O)[C@H]1C(=O)N2C(C(=O)O)=C(S[C@@H]3CN[C@H](C(=O)N(C)C)C3)[C@H](C)[C@H]12 [MEROPENEM],32,16,32,64,128,64,32,16,64,32,64,32,32,16,128,16,64,32,32,32,MIC (Acinetobacter baumannii [20]): 64 mg/L; MIC (Acinetobacter baumannii [21]): 32 mg/L; MIC (Acinetobacter baumannii [22]): 16 mg/L; MIC [23]: 64 mg/L; MIC (Acinetobacter baumannii [24]): 64 mg/L; MIC (Acinetobacter baumannii [25]): 32 mg/L
CC(C)(O/N=C(\C(=O)N[C@@H]1C(=O)N2C(C(=O)[O-])=C(C[n+]3ccccc3)CS[C@H]12)c1csc(N)n1)C(=O)O [CEFTAZIDIME],> 256,> 256,4,> 256,> 256,> 256,16,> 256,> 256,64,> 256,8,64,> 256,> 256,> 256,> 256,> 256,> 256,16,MIC (Acinetobacter baumannii [20]): > 256 mg/L; MIC (Acinetobacter baumannii [21]): 32 mg/L; MIC (Acinetobacter baumannii [22]): 16 mg/L; MIC [23]: 16 mg/L; MIC (Acinetobacter baumannii [24]): > 256 mg/L; MIC (Acinetobacter baumannii [25]): > 256 mg/L

# Source: ChEMBL document CHEMBL1137659, “Molecular epidemiology of clinical isolates of carbapenem-resistant Acinetobacter spp. from Chinese hospitals” (2007)
